Data published in ChEMBL document CHEMBL1629695, “A novel polymyxin derivative that lacks the fatty acid tail and carries only three positive charges has strong synergism with agents excluded by the intact outer membrane” (Antimicrob Agents Chemother, 2010).
≈ marks a conversion by molar mass, not a printed value. Calls of active or inactive are those of the source. No cut-off for these calls is given here. Bridge positions count the residues as written; N and C are the ends. Square brackets hold non-standard residues; d marks the D form. Peptide text beside a SMILES is read from it. Dab = NCC[C@H](N)C(=O)O

Tests used:
Escherichia coli [1] = experiment: Ratio of MIC for Escherichia coli IH3080 to MIC for Escherichia coli IH3080 in presence of 4 ug/ml of NAB741; assay type: functional
Escherichia coli [2] = experiment: Antimicrobial activity against in Escherichia coli IH3080 in presence of NAB741; assay type: functional
Escherichia coli [3] = experiment: Antimicrobial activity against Escherichia coli ATCC 25922; assay type: functional
Escherichia coli [4] = experiment: Antimicrobial activity against Escherichia coli IH3080 by Etest method in presence of 4 ug/ml NAB741; assay type: functional
Klebsiella pneumoniae [5] = experiment: Antimicrobial activity against Klebsiella pneumoniae ATCC 13883 by Etest method in presence of 2 ug/ml NAB741; assay type: functional
Escherichia coli [6] = experiment: Antimicrobial activity against Escherichia coli ATCC 25922 in presence of 2 ug/ml NAB741; assay type: functional
Klebsiella pneumoniae [7] = experiment: Antimicrobial activity against in Klebsiella pneumoniae ATCC 13883 in presence of NAB741; assay type: functional
Escherichia coli [8] = experiment: Antimicrobial activity against Escherichia coli ATCC 25922 in presence of 32 ug/ml NAB741; assay type: functional
Acinetobacter baumannii [9] = experiment: Antimicrobial activity against Acinetobacter baumannii ATCC 19606 by Etest method in presence of 4 ug/ml NAB741; assay type: functional
Acinetobacter baumannii [10] = experiment: Antimicrobial activity against Acinetobacter baumannii ATCC 19606 by Etest method in presence of 2 ug/ml NAB741; assay type: functional
Enterobacter cloacae [11] = experiment: Ratio of MIC for Enterobacter cloacae ATCC 23355 to MIC for Enterobacter cloacae ATCC 23355 in presence of 4 ug/ml of NAB741; assay type: functional
Escherichia coli [12] = experiment: Antimicrobial activity against Escherichia coli ATCC 25922 by Etest method in presence of 2 ug/ml NAB741; assay type: functional
Escherichia coli [13] = experiment: Antimicrobial activity against in Escherichia coli ATCC 25922 in presence of NAB741; assay type: functional
Enterobacter cloacae [14] = experiment: Antimicrobial activity against Enterobacter cloacae ATCC 23355 by Etest method in presence of 2 ug/ml NAB741; assay type: functional
Escherichia coli [15] = experiment: Antimicrobial activity against Escherichia coli ATCC 25922 by Etest method; assay type: functional
Escherichia coli [16] = experiment: Antimicrobial activity against Escherichia coli IH3080 by Etest method; assay type: functional
Acinetobacter baumannii [17] = experiment: Antimicrobial activity against Acinetobacter baumannii ATCC 19606 by Etest method; assay type: functional
Enterobacter cloacae [18] = experiment: Antimicrobial activity against Enterobacter cloacae ATCC 23355 by Etest method in presence of 4 ug/ml NAB741; assay type: functional
Escherichia coli [19] = experiment: Antimicrobial activity against Escherichia coli ATCC 25922 in presence of 8 ug/ml NAB741; assay type: functional
Acinetobacter baumannii [20] = experiment: Ratio of MIC for Acinetobacter baumannii ATCC 19606 to MIC for Acinetobacter baumannii ATCC 19606 in presence of 4 ug/ml of NAB741; assay type: functional
Klebsiella pneumoniae [21] = experiment: Antimicrobial activity against Klebsiella pneumoniae ATCC 13883 by Etest method in presence of 4 ug/ml NAB741; assay type: functional
Escherichia coli [22] = experiment: Ratio of MIC for Escherichia coli ATCC 25922 to MIC for Escherichia coli ATCC 25922 in presence of 4 ug/ml of NAB741; assay type: functional
Enterobacter cloacae [23] = experiment: Antimicrobial activity against Enterobacter cloacae ATCC 23355 by Etest method; assay type: functional
Acinetobacter baumannii [24] = experiment: Antimicrobial activity against in Acinetobacter baumannii ATCC 19606 in presence of NAB741; assay type: functional
Escherichia coli [25] = experiment: Antimicrobial activity against Escherichia coli ATCC 25922 in presence of 4 ug/ml NAB741; assay type: functional
Escherichia coli [26] = experiment: Antimicrobial activity against Escherichia coli ATCC 25922 in presence of […] ug/ml NAB741; assay type: functional
Escherichia coli [27] = experiment: Antimicrobial activity against Escherichia coli IH3080 by Etest method in presence of 2 ug/ml NAB741; assay type: functional
Klebsiella pneumoniae [28] = experiment: Ratio of MIC for Klebsiella pneumoniae ATCC 13883 to MIC for Klebsiella pneumoniae ATCC 13883 in presence of 4 ug/ml of NAB741; assay type: functional
Escherichia coli [29] = experiment: Antimicrobial activity against Escherichia coli ATCC 25922 by Etest method in presence of 4 ug/ml NAB741; assay type: functional
Enterobacter cloacae [30] = experiment: Antimicrobial activity against in Enterobacter cloacae ATCC 23355 in presence of NAB741; assay type: functional
Klebsiella pneumoniae [31] = experiment: Antimicrobial activity against Klebsiella pneumoniae ATCC 13883 by Etest method; assay type: functional
Escherichia coli [32] = experiment: Antimicrobial activity against Escherichia coli IH3080 assessed as zone of inhibition at 10 ug after 18 hrs by disk diffusion method; assay type: functional
Pseudomonas aeruginosa [33] = experiment: Antimicrobial activity against Pseudomonas aeruginosa ATCC 27853 assessed as zone of inhibition at 10 ug after 18 hrs by disk diffusion method in presence of 1 ug/ml rifampin; assay type: functional
[34] = Total body clearance in Sprague-Dawley rat at 1 mg/kg, iv; assay type: ADME, organism-based; set-up: dose 1 mg/kg, route intravenous; details: in vivo
Enterobacter cloacae [35] = experiment: Antimicrobial activity against Enterobacter cloacae ATCC 23355 at 16 ug/ml; assay type: functional, organism-based
[36] = (§1) Volume of distribution in Sprague-Dawley rat at 1 mg/kg, iv; assay type: ADME, organism-based; set-up: dose 1 mg/kg, route intravenous; details: Sprague-Dawley, in vivo
Acinetobacter baumannii [37] = experiment: Antimicrobial activity against Acinetobacter baumannii ATCC 19606 assessed as zone of inhibition at 10 ug after 18 hrs by disk diffusion method; assay type: functional
V79 = experiment: Cytotoxicity against Chinese hamster V79 cells at 0.25 ug/ml to 128 ug/ml after 24 hrs; assay type: cell-based, Cricetulus griseus; details: v79, 24 h
Pseudomonas aeruginosa [38] = experiment: Antimicrobial activity against Pseudomonas aeruginosa ATCC 27853 assessed as zone of inhibition at 10 ug after 18 hrs by disk diffusion method; assay type: functional
[39] = (§2) Drug level in Sprague-Dawley rat urine at 1 mg/kg, iv; assay type: ADME, organism-based; set-up: dose 1 mg/kg, route intravenous; details: Sprague-Dawley, urine, read-out: Drug uptake
[40] = Plasma concentration in Sprague-Dawley rat at 1 mg/kg, iv administered after 10 minutes; assay type: ADME, organism-based; set-up: dose 1 mg/kg, route intravenous
[41] = Renal clearance in Sprague-Dawley rat at 1 mg/kg, iv; assay type: ADME, organism-based, Kidney; set-up: dose 1 mg/kg, route intravenous; details: in vivo, read-out: CL_renal
Acinetobacter baumannii [42] = experiment: Antimicrobial activity against Acinetobacter baumannii ATCC 19606 assessed as zone of inhibition at 10 ug after 18 hrs by disk diffusion method in presence of 1 ug/ml rifampin; assay type: functional
Escherichia coli [43] = experiment: Antimicrobial activity against Escherichia coli F19; assay type: functional
Escherichia coli [44] = experiment: Antimicrobial activity against Escherichia coli IH3080 assessed as zone of inhibition at 10 ug after 18 hrs by disk diffusion method in presence of 1 ug/ml rifampin; assay type: functional
[45] = (§3) Half-life in Sprague-Dawley rat at 1 mg/kg, iv; assay type: ADME, organism-based; set-up: dose 1 mg/kg, route intravenous; details: Sprague-Dawley, in vivo
Rattus norvegicus [46] = experiment: as §1; assay type: ADME, organism-based; set-up: dose 1 mg/kg, route intravenous; details: in vivo
Rattus norvegicus [47] = experiment: as §2; assay type: ADME, organism-based; set-up: dose 1 mg/kg, route intravenous; details: in vivo
Rattus norvegicus [48] = experiment: as §3; assay type: ADME, organism-based; set-up: dose 1 mg/kg, route intravenous; details: in vivo

## CC[C@H]1OC(=O)[C@H](C)[C@@H](O[C@H]2C[C@@](C)(OC)[C@@H](O)[C@H](C)O2)[C@H](C)[C@@H](O[C@@H]2O[C@H](C)C[C@H](N(C)C)[C@H]2O)[C@](C)(OC)C[C@@H](C)C(=O)[C@H](C)[C@@H](O)[C@]1(C)O [CLARITHROMYCIN]
Escherichia coli [1]
  Ratio: 64
Escherichia coli [2]
  fractional inhibitory concentration index (FICI): 0.126
Escherichia coli [3]
  MIC: ≥ 64 µg/mL
Escherichia coli [4]
  MIC: 0.125 µg/mL
Klebsiella pneumoniae [5]
  MIC: 4 µg/mL
Escherichia coli [6]
  MIC: 32 µg/mL
Klebsiella pneumoniae [7]
  fractional inhibitory concentration index (FICI): 0.167
Escherichia coli [8]
  MIC: 0.063 µg/mL
Acinetobacter baumannii [9]
  MIC: 0.5 µg/mL
Acinetobacter baumannii [10]
  MIC: 0.75 µg/mL
Enterobacter cloacae [11]
  Ratio: 64
Escherichia coli [12]
  MIC: 0.5 µg/mL
Escherichia coli [13]
  fractional inhibitory concentration index (FICI): 0.094
Enterobacter cloacae [14]
  MIC: 16 µg/mL
Escherichia coli [15]
  MIC: 16 µg/mL (≈ 21.4 µM)
Escherichia coli [16]
  MIC: 12 µg/mL (≈ 16 µM)
Acinetobacter baumannii [17]
  MIC: 8 µg/mL (≈ 10.7 µM)
Enterobacter cloacae [18]
  MIC: 0.5 µg/mL
Escherichia coli [19]
  MIC: 0.5 µg/mL
Acinetobacter baumannii [20]
  Ratio: 12
Klebsiella pneumoniae [21]
  MIC: 1 µg/mL
Escherichia coli [22]
  Ratio: 84
Enterobacter cloacae [23]
  MIC: 48 µg/mL (≈ 64.2 µM)
Acinetobacter baumannii [24]
  fractional inhibitory concentration index (FICI): 0.156
Escherichia coli [25]
  MIC: 1 µg/mL
Escherichia coli [26]
  MIC: 0.25 µg/mL
Escherichia coli [27]
  MIC: 1 µg/mL
Klebsiella pneumoniae [28]
  Ratio: 6
Escherichia coli [29]
  MIC: 0.094 µg/mL
Enterobacter cloacae [30]
  fractional inhibitory concentration index (FICI): 0.135
Klebsiella pneumoniae [31]
  MIC: 12 µg/mL (≈ 16 µM)

## CO[C@H]1/C=C/O[C@@]2(C)Oc3c(C)c(O)c4c(O)c(c(/C=N/N5CCN(C)CC5)c(O)c4c3C2=O)NC(=O)/C(C)=C\C=C\[C@H](C)[C@H](O)[C@@H](C)[C@@H](O)[C@@H](C)[C@H](OC(C)=O)[C@@H]1C [RIFAMPIN]
Escherichia coli [2]
  fractional inhibitory concentration index (FICI): 0.111
Escherichia coli [3]
  MIC: 8 µg/mL (≈ 9.72 µM)
Escherichia coli [4]
  MIC: 0.047 µg/mL
Klebsiella pneumoniae [5]
  MIC: 1 µg/mL
Escherichia coli [6]
  MIC: 4 µg/mL
Escherichia coli [8]
  MIC: 0.031 µg/mL
Acinetobacter baumannii [9]
  MIC: 0.094 µg/mL
Acinetobacter baumannii [10]
  MIC: 0.19 µg/mL
Escherichia coli [12]
  MIC: 0.64 µg/mL
Escherichia coli [13]
  fractional inhibitory concentration index (FICI): 0.126
Enterobacter cloacae [14]
  MIC: 1.5 µg/mL
Escherichia coli [15]
  MIC: 4 µg/mL (≈ 4.86 µM)
Escherichia coli [16]
  MIC: 4 µg/mL (≈ 4.86 µM)
Acinetobacter baumannii [17]
  MIC: 1.5 µg/mL (≈ 1.82 µM)
Enterobacter cloacae [18]
  MIC: 0.016 µg/mL
Escherichia coli [19]
  MIC: 0.25 µg/mL
Klebsiella pneumoniae [21]
  MIC: 0.5 µg/mL
Enterobacter cloacae [23]
  MIC: 6 µg/mL (≈ 7.29 µM)
Acinetobacter baumannii [24]
  fractional inhibitory concentration index (FICI): 0.131
Escherichia coli [25]
  MIC: 1 µg/mL
Escherichia coli [26]
  MIC: 0.063 µg/mL
Escherichia coli [27]
  MIC: 0.19 µg/mL
Escherichia coli [29]
  MIC: 0.016 µg/mL
Enterobacter cloacae [30]
  fractional inhibitory concentration index (FICI): 0.126
Klebsiella pneumoniae [31]
  MIC: 12 µg/mL (≈ 14.6 µM)

## CC(=O)N[C@H](C(=O)N[C@H](CO)C(=O)N[C@H]1CCNC(=O)[C@H]([C@@H](C)O)NC(=O)[C@H](CCN)NC(=O)[C@H](CCN)NC(=O)[C@H](CC(C)C)NC(=O)[C@@H](Cc2ccccc2)NC(=O)[C@H](CCN)NC1=O)[C@@H](C)O [SPR-741] (Ac-T[dS][Dab][Dab][dF]L[Dab][Dab]T; lactam 3-C)
Escherichia coli [32]
  inhibition zone (IZ): 12 mm2
Pseudomonas aeruginosa [33]
  inhibition zone (IZ): 20 mm2
[34]
  clearance: 7.39 mL/min/kg
Enterobacter cloacae [35]
  Activity: Active
[36]
  Vd: 0.243 L/kg
Acinetobacter baumannii [37]
  inhibition zone (IZ): 9 mm2
V79
  Activity: Non-toxic
Pseudomonas aeruginosa [38]
  inhibition zone (IZ): 4 mm2
[39]
  dose excreted: 50.9%
[40]
  concentration at 10 min: 3130 ng/mL
[41]
  CL renal: 3.78 mL/min/kg
Acinetobacter baumannii [42]
  inhibition zone (IZ): 223 mm2
Escherichia coli [43]
  MIC: 16 µg/mL (≈ 16.1 µM)
Escherichia coli [44]
  inhibition zone (IZ): 230 mm2
[45]
  half-life: 32.7 min

## COLISTIN
Rattus norvegicus [46]
  Vd: 0.496 L/kg
Rattus norvegicus [47]
  Drug uptake: 0.18%
Rattus norvegicus [48]
  t1/2: 74.6 min
